Experimental data from patent publication US9539322B2, “Method of enhancing an antitumor T cell response by administering an anti-IL-6 receptor antibody” (National University Corporation Hokkaido University, priority 2010, dated 2017).
Where a name gives a salt, the structure may show the parent alone.

What was measured:
CD8^+ T cells = experiment: Tumor diameter with GEM and anti-CD8 antibody (CMC-1); proportion of OVA-specific CD8+ cytotoxic T cells (LLC-OVA); assay type: in vivo, BALB/c mice; C57BL6 mice; settings: GEM 120 mg/kg i.p.; anti-CD8 antibody 250 μg i.v. every three days (CMC-1); OVA-specific CD8+ CTL in regional lymph nodes (LLC-OVA); FIG. 4, 5
Experimental: CMC-1 (2×10^6) was intradermally inoculated to BALB/c mice. From day 5 after inoculation, GEM (120 mg/kg) was intraperitoneally administered every week and anti-CD8 antibody (250 μg) was intravenously administered every three days. The tumor diameter was measured every two days. LLC-OVA (2×10^6) prepared by introducing the ovalbumin (OVA) gene into mouse lung cancer cell line LLC was intradermally inoculated to C57BL6 mice, and after five days GEM (120 mg/kg) was intraperitoneally administered. After nine days, the regional lymph nodes were collected and assessed by flow cytometry for the proportion of OVA-specific CD8^+ cytotoxic T cells.

CD8^+ cells = experiment: Growth ability of spleen CD8+ cells after anti-CD3 stimulation (3H incorporation test), CMC-1 tumor-bearing mice; assay type: in vivo, BALB/c mice; settings: i.p. 30 days after CMC-1 inoculation (GEM; CY 60 mg/kg; 5-FU 120 mg/kg); spleen CD8+ cells after 48 hours; 60 hours immobilized anti-CD3 2 μg/ml; FIG. 3
Experimental: (§1) GEM was administered to the tumor-bearing mice 30 days after CMC-1 inoculation, and after 48 hours the absolute number of respective cell populations in the spleen were analyzed by flow cytometry. Cyclophosphamide (CY) (60 mg/kg), fluoro-5-uracil (5-FU) (120 mg/kg), or GEM was intraperitoneally administered to tumor-bearing mice 30 days after CMC-1 inoculation. After 48 hours, CD8^+ cells were isolated from the spleen, and the growth ability after 60 hours of stimulation with immobilized anti-CD3 antibody (2 μg/ml) was assessed by ^3H incorporation test.

[1] = system: methylcholanthrene-induced squamous cancer CMC-1; experiment: Antitumor effect of GEM in CMC-1-inoculated mice (tumor growth); assay type: in vivo; settings: CMC-1 intradermal in BALB/c mice; 120 mg/kg i.p. every week from day 5; FIG. 1
Experimental: Cell line of methylcholanthrene-induced squamous cancer CMC-1 (2×10^6 cells) was intradermally inoculated to BALB/c mice, and from day 5 after inoculation, GEM (Gemzar: gemcitabine hydrochloride) was intraperitoneally administered at 120 mg/kg every week. The tumor growth was measured every two days to evaluate the antitumor effect of GEM.

immunosuppressive cells = experiment: Flow cytometry of the absolute number of cell populations in the spleen of CMC-1 tumor-bearing mice; assay type: in vivo, BALB/c mice; settings: tumor-bearing mice 30 days after CMC-1 inoculation; 48 hours after administration; FIG. 2
Experimental: as §1

SMILES: Nc1ccn([C@@H]2O[C@H](CO)[C@@H](O)C2(F)F)c(=O)n1 [GEM, gemcitabine hydrochloride]
- antitumor effect through CD8+ T cell activity (CD8^+ T cells): produces the antitumor effect by enhancing the activity of CD8^+ T cells
- growth-enhancing effect for CD8+ T cells (CD8^+ cells): excellent growth-enhancing effect for CD8^+ T cells
- tumor growth-suppressive effect [1]: tumor growth-suppressive effect
- elimination of immunosuppressive cells in the spleen (immunosuppressive cells): eliminates immunosuppressive cells

SMILES: O=c1[nH]cc(F)c(=O)[nH]1 [5-FU, fluoro-5-uracil]
- growth-enhancing effect for CD8+ T cells (CD8^+ cells): not observed

SMILES: O=P1(N(CCCl)CCCl)NCCCO1 (stereo not drawn) [CY, Cyclophosphamide]
- growth-enhancing effect for CD8+ T cells (CD8^+ cells): not observed
